{
  "source": "patent US12404283B2",
  "about": "“c-MYC mRNA translation modulators and uses thereof in the treatment of cancer” (Anima Biotech Inc., priority 2022, dated 2025)",
  "data": [
    {"test_system": "c-Myc", "assay": "c-Myc immunofluorescence assay", "assay_type": "cell-based, human", "details": "A549 cells, 24 hours treatment, anti-c-Myc immunofluorescence", "procedure,_shortened": "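High-content imaging (20×) of PFA-fixed A549 cells immunostained for c-Myc with DAPI nuclei, after 24 h compound treatment at increasing concentrations. Per-cell c-Myc signal in identified cell regions was plotted against dose and fitted by logistic regression to give EC50.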", "values": [
      {"smiles": "CCN(CC)CCCNC(=O)c1ccc2c(c1)sc1nc(-c3cncc(C)c3)cn12", "note": "[compound 165, N-(3-(diethylamino)propyl)-2-(5-methylpyridin-3-yl)benzo[d]imidazo[2,1-b]thiazole-7-carboxamide]", "Myc Efficacy (−LogEC50)": "+ (+ >3 and <5)"},
      {"smiles": "CCN(CC)CCCNC(=O)c1ccc2c(c1)sc1nc(-c3ccc(C(=O)NC)cc3F)cn12", "note": "[compound 166, N-(3-(diethylamino)propyl)-2-(2-fluoro-4-(methylcarbamoyl)phenyl) benzo[d]imidazo[2,1-b]thiazole-7-carboxamide]", "Myc Efficacy (−LogEC50)": "+++ (+++ ≥6)"},
      {"smiles": "CCN(CC)CCCNC(=O)c1ccc2c(c1)sc1nc(-c3cccc(C(=O)NC)c3)cn12", "note": "[compound 167, N-(3-(diethylamino)propyl)-2-(3-(methylcarbamoyl)phenyl) benzo[d]imidazo[2,1-b]thiazole-7-carboxamide]", "Myc Efficacy (−LogEC50)": "+ (+ >3 and <5)"},
      {"smiles": "Cc1cccc(-c2cn3c(n2)sc2cc(NC(=O)C4CCNCC4)ccc23)c1", "note": "[compound 168, N-(2-(m-tolyl)benzo[d]imidazo[2,1-b]thiazol-7-yl)piperidine-4-carboxamide]", "Myc Efficacy (−LogEC50)": "++ (++ ≥5 and <6)"},
      {"smiles": "CCN(CC)CCCNC(=O)c1ccc2c(c1)sc1nc(-c3cccc(C(C)C)c3)cn12", "note": "[compound 169, N-(3-(diethylamino)propyl)-2-(3-isopropylphenyl)benzo[d] imidazo[2,1-b]thiazole-7-carboxamide]", "Myc Efficacy (−LogEC50)": "++ (++ ≥5 and <6)"},
      {"smiles": "CCN(CC)CCCNC(=O)c1ccc2c(c1)sc1nc(-c3cccc(N4CCOCC4)c3)cn12", "note": "[compound 170, N-(3-(diethylamino)propyl)-2-(3-morpholinophenyl)benzo[d] imidazo[2,1-b]thiazole-7-carboxamide]", "Myc Efficacy (−LogEC50)": "++ (++ ≥5 and <6)"},
      {"smiles": "CCN(CC)CCCNC(=O)c1ccc2c(c1)sc1nc(-c3cccc(N4CCCC4)c3)cn12", "note": "[compound 171, N-(3-(diethylamino)propyl)-2-(3-(pyrrolidin-1-yl)phenyl)benzo[d]imidazo [2,1-b]thiazole-7-carboxamide]", "Myc Efficacy (−LogEC50)": "++ (++ ≥5 and <6)"},
      {"smiles": "CCN(CC)CCCNC(=O)c1ccc2c(c1)sc1nc(-c3ccc(C(=O)O)cc3)cn12", "note": "[compound 172, 4-(7-((3-(diethylamino)propyl)carbamoyl)benzo[d]imidazo [2,1-b]thiazol-2-yl)benzoic acid]", "Myc Efficacy (−LogEC50)": "− (− ≤3)"},
      {"smiles": "CCN(CC)CCCNC(=O)c1ccc2c(c1)sc1nc(-c3ccc(C4COC4)cc3)cn12", "note": "[compound 173, N-(3-(diethylamino)propyl)-2-(4-(oxetan-3-yl)phenyl)benzo[d]imidazo [2,1-b]thiazole-7-carboxamide]", "Myc Efficacy (−LogEC50)": "++ (++ ≥5 and <6)"},
      {"smiles": "CNC(=O)c1ccc(-c2cn3c(n2)sc2cc(C(=O)NCCCN4CCCCC4)ccc23)cc1", "note": "[compound 174, 2-(4-(methylcarbamoyl)phenyl)-N-(3-(piperidin-1-yl)propyl)benzo[d]imidazo [2,1-b]thiazole-7-carboxamide]", "Myc Efficacy (−LogEC50)": "+++ (+++ ≥6)"},
      {"smiles": "CNC(=O)c1ccc(-c2cn3c(n2)sc2cc(C(=O)NCCCN4CCNCC4)ccc23)cc1", "note": "[compound 175, 2-(4-(methylcarbamoyl)phenyl)-N-(3-(piperazin-1-yl)propyl)benzo[d]imidazo [2,1-b]thiazole-7-carboxamide]", "Myc Efficacy (−LogEC50)": "− (− ≤3)"},
      {"smiles": "CNC(=O)c1ccc(-c2cn3c(n2)sc2cc(C(=O)NCC4CCN(C)C4)ccc23)cc1", "note": "(centres unmarked) [compound 176, 2-(4-(methylcarbamoyl)phenyl)-N-((1-methylpyrrolidin-3-yl)methyl)benzo[d]imidazo [2,1-b]thiazole-7-carboxamide]", "Myc Efficacy (−LogEC50)": "− (− ≤3)"},
      {"smiles": "CCN(CCCNC(=O)c1ccc2c(c1)sc1nc(-c3cccc(C)c3)cn12)CC(F)(F)F", "note": "[compound 177, N-(3-(ethyl(2,2,2-trifluoroethyl)amino)propyl)-2-(m-tolyl)benzo[d]imidazo[2,1-b]thiazole-7-carboxamide]", "Myc Efficacy (−LogEC50)": "+ (+ >3 and <5)"},
      {"smiles": "Cc1cccc(-c2cn3c(n2)sc2cc(C(=O)NCCCNCC(F)(F)F)ccc23)c1", "note": "[compound 178, 2-(m-tolyl)-N-(3-((2,2,2-trifluoroethyl)amino)propyl) benzo[d]imidazo[2,1-b]thiazole-7-carboxamide]", "Myc Efficacy (−LogEC50)": "+ (+ >3 and <5)"},
      {"smiles": "CCN(CC)CCCNC(=O)c1ccc2c(c1)sc1nc(-c3ccc(N4CCCC4=O)cc3)cn12", "note": "[compound 179, N-(3-(diethylamino)propyl)-2-(4-(2-oxopyrrolidin-1-yl)phenyl)benzo[d]imidazo [2,1-b]thiazole-7-carboxamide]", "Myc Efficacy (−LogEC50)": "+ (+ >3 and <5)"},
      {"smiles": "CCN(CC)CCCN(C)C(=O)c1ccc2c(c1)sc1nc(-c3ccc(C(=O)NC)cc3)cn12", "note": "[compound 180, N-(3-(diethylamino)propyl)-N-methyl-2-(4-(methylcarbamoyl)phenyl) benzo[d]imidazo[2,1-b]thiazole-7-carboxamide]", "Myc Efficacy (−LogEC50)": "+ (+ >3 and <5)"},
      {"smiles": "CCN(CC)CCCN(C)C(=O)c1ccc2c(c1)sc1nc(-c3cccc(C)c3)cn12", "note": "[compound 181, N-(3-(diethylamino)propyl)-N-methyl-2-(m-tolyl)benzo[d]imidazo[2,1-b]thiazole-7-carboxamide]", "Myc Efficacy (−LogEC50)": "++ (++ ≥5 and <6)"},
      {"smiles": "CNC(=O)c1ccc(-c2cn3c(n2)sc2cc(C(=O)NC[C@H]4COCCO4)ccc23)cc1", "note": "[compound 182, (S)-N-((1,4-dioxan-2-yl)methyl)-2-(4-(methylcarbamoyl)phenyl) benzo[d]imidazo[2,1-b]thiazole-7-carboxamide]", "Myc Efficacy (−LogEC50)": "− (− ≤3)"},
      {"smiles": "CNC(=O)c1ccc(-c2cn3c(n2)sc2cc(C(=O)NCCN4CC5(COC5)C4)ccc23)cc1", "note": "[compound 183, N-(2-(2-oxa-6-azaspiro[3.3]heptan-6-yl)ethyl)-2-(4-(methylcarbamoyl)phenyl) benzo[d]imidazo[2,1-b]thiazole-7-carboxamide]", "Myc Efficacy (−LogEC50)": "+ (+ >3 and <5)"},
      {"smiles": "CNC(=O)c1ccc(-c2cn3c(n2)sc2cc(C(=O)NCCN4CCN(C)CC4)ccc23)cc1", "note": "[compound 184, 2-(4-(methylcarbamoyl)phenyl)-N-(2-(4-methylpiperazin-1-yl)ethyl)benzo[d]imidazo [2,1-b]thiazole-7-carboxamide]", "Myc Efficacy (−LogEC50)": "+ (+ >3 and <5)"},
      {"smiles": "CNC(=O)c1ccc(-c2cn3c(n2)sc2cc(C(=O)NC4CCNCC4)ccc23)cc1", "note": "[compound 185, 2-(4-(methylcarbamoyl)phenyl)-N-(piperidin-4-yl)benzo[d]imidazo[2,1-b]thiazole-7-carboxamide]", "Myc Efficacy (−LogEC50)": "++ (++ ≥5 and <6)"},
      {"smiles": "CNC(=O)c1ccc(-c2cn3c(n2)sc2cc(C(=O)N[C@@H](C)COC)ccc23)cc1", "note": "[compound 186, (S)-N-(1-methoxypropan-2-(methylcarbamoyl)phenyl) benzo[d]imidazo[2,1-b]thiazole-7-carboxamide]", "Myc Efficacy (−LogEC50)": "+ (+ >3 and <5)"},
      {"smiles": "CNC(=O)c1ccc(-c2cn3c(n2)sc2cc(C(=O)NC(C)CCO)ccc23)cc1", "note": "(centres unmarked) [compound 187, N-(4-hydroxybutan-2-yl)-2-(4-(methylcarbamoyl)phenyl) benzo[d]imidazo[2,1-b]thiazole-7-carboxamide]", "Myc Efficacy (−LogEC50)": "− (− ≤3)"},
      {"smiles": "CC[C@@H](CO)NC(=O)c1ccc2c(c1)sc1nc(-c3ccc(C(=O)NC)cc3)cn12", "note": "[compound 188, (S)-N-(1-hydroxybutan-2-yl)-2-(4-(methylcarbamoyl)phenyl) benzo[d]imidazo[2,1-b]thiazole-7-carboxamide]", "Myc Efficacy (−LogEC50)": "+ (+ >3 and <5)"},
      {"smiles": "CNC(=O)c1ccc(-c2cn3c(n2)sc2cc(C(=O)NCCCOC)ccc23)cc1", "note": "[compound 189, N-(3-methoxypropyl)-2-(4-(methylcarbamoyl)phenyl) benzo[d]imidazo[2,1-b]thiazole-7-carboxamide]", "Myc Efficacy (−LogEC50)": "− (− ≤3)"},
      {"smiles": "CNC(=O)c1ccc(-c2cn3c(n2)sc2cc(C(=O)NC4CCN(C(=O)C5CC5)CC4)ccc23)cc1", "note": "[compound 190, N-(1-(cyclopropanecarbonyl)piperidin-4-yl)-2-(4-(methylcarbamoyl)phenyl) benzo[d]imidazo[2,1-b]thiazole-7-carboxamide]", "Myc Efficacy (−LogEC50)": "+ (+ >3 and <5)"},
      {"smiles": "CNC(=O)c1ccc(-c2cn3c(n2)sc2cc(C(=O)NCCC(=O)N4CCCCC4)ccc23)cc1", "note": "[compound 191, 2-(4-(methylcarbamoyl)phenyl)-N-(3-oxo-3-(piperidin-1-yl)propyl)benzo[d]imidazo [2,1-b]thiazole-7-carboxamide]", "Myc Efficacy (−LogEC50)": "+ (+ >3 and <5)"},
      {"smiles": "CNC(=O)c1ccc(-c2cn3c(n2)sc2cc(C(=O)N[C@@H](CO)CC(C)C)ccc23)cc1", "note": "[compound 192, (R)-N-(1-hydroxy-4-methylpentan-2-yl)-2-(4-(methylcarbamoyl)phenyl) benzo[d]imidazo[2,1-b]thiazole-7-carboxamide]", "Myc Efficacy (−LogEC50)": "− (− ≤3)"},
      {"smiles": "CCN(CCCN(C)C(=O)c1ccc2c(c1)sc1nc(-c3cccc(C)c3)cn12)CC(F)(F)F", "note": "[compound 193, N-(3-(ethyl(2,2,2-trifluoroethyl)amino)propyl) N-methyl-2-(m-tolyl)benzo[d]imidazo[2,1-b]thiazole-7-carboxamide]", "Myc Efficacy (−LogEC50)": "+ (+ >3 and <5)"},
      {"smiles": "CCN(CC)CCCNC(=O)c1ccc2c(c1)sc1nc(-c3cc(C)ccn3)cn12", "note": "[compound 194, N-(3-(diethylamino)propyl)-2-(4-methylpyridin-2-yl)benzo[d]imidazo[2,1-b]thiazole-7-carboxamide]", "Myc Efficacy (−LogEC50)": "+ (+ >3 and <5)"},
      {"smiles": "CNC(=O)c1ccc(-c2cn3c(n2)sc2cc(C(=O)NCC4(O)COC4)ccc23)cc1", "note": "[compound 195, N-((3-hydroxyoxetan-3-yl)methyl)-2-(4-(methylcarbamoyl)phenyl) benzo[d]imidazo[2,1-b]thiazole-7-carboxamide]", "Myc Efficacy (−LogEC50)": "− (− ≤3)"},
      {"smiles": "CNC(=O)c1ccc(-c2cn3c(n2)sc2cc(C(=O)NC[C@H]4CCNC[C@@H]4O)ccc23)cc1", "note": "[compound 196, N-(((3R,4R)-3-hydroxypiperidin-4-yl)methyl)-2-(4-(methylcarbamoyl)phenyl) benzo[d]imidazo[2,1-b]thiazole-7-carboxamide]", "Myc Efficacy (−LogEC50)": "+ (+ >3 and <5)"}
    ]}
  ]
}
